From ChEMBL document CHEMBL1148163, “Studies on inhibitors of skin tumor promotion, XII. Rotenoids from Amorpha fruticosa” (J Nat Prod, 1993) come the findings set out here.

For data set [1], the system named is Raji. Put plainly: Inhibition of 12-O-tetradecanoylphorbol-13-acetate induced EBV-early antigen activation in human Raji cells assessed as EA activation at 500 molar ratio relative to TPA. The settings on record: human gammaherpesvirus 4. Further details: scale not given: the % may be the effect or the level left. It is filed as cell-based.
In data set [2] the test system is Raji. Put plainly: Inhibition of 12-O-tetradecanoylphorbol-13-acetate induced EBV-early antigen activation in human Raji cells assessed as EA activation at 100 molar ratio relative to TPA. It is filed as cell-based. The settings on record: human gammaherpesvirus 4. Further details: scale not given: the % may be the effect or the level left.
Data set [3] deals with Raji. Description: Inhibition of 12-O-tetradecanoylphorbol-13-acetate induced EBV-early antigen activation in human Raji cells assessed as EA activation at 10 molar ratio relative to TPA. Details: scale not given: the % may be the effect or the level left. It counts as cell-based. The settings on record: human gammaherpesvirus 4.
Data set [4] in a line: Cytotoxicity against human Raji cells assessed as cell viability at 1000 molar ratio. It counts as cell-based. The settings on record: read-out: Activity.
Data set [5] in a line: Cytotoxicity against human Raji cells assessed as cell viability at 500 molar ratio. It counts as cell-based. The settings on record: read-out: Activity.
A short description of data set [6]: Cytotoxicity against human Raji cells assessed as cell viability at 100 molar ratio. It counts as cell-based. The settings on record: read-out: Activity.
The nature of data set [7]: Cytotoxicity against human Raji cells assessed as cell viability at 10 molar ratio. The settings on record: read-out: Activity. It counts as cell-based.
For data set [8], the system named is Raji. Description: Inhibition of 12-O-tetradecanoylphorbol-13-acetate induced EBV-early antigen activation in human Raji cells assessed as EA activation at 1000 molar ratio relative to TPA. It counts as cell-based. Details: scale not given: the % may be the effect or the level left. The settings on record: human gammaherpesvirus 4.
In data set [9] the test system is Raji. Put plainly: Effect on TPA-induced cell cycle arrest in human Raji cells assessed as accumulation at G1 phase at 32 nmol by flow cytometry. It counts as functional.
In data set [10] the test system is Raji. Put plainly: Effect on TPA-induced cell cycle arrest in human Raji cells assessed as accumulation at S phase at 32 nmol by flow cytometry. It is filed as functional. On the technique in general: A flow cytometer gives signals particle by particle.
Data set [11] concerns Raji. Description: Effect on TPA-induced cell cycle arrest in human Raji cells assessed as accumulation at G2/M phase at 32 nmol by flow cytometry. It is filed as functional.
Data set [12] has as its system Mus musculus. Description: Inhibition of DMBA-induced/TPA-promoted carcinogenesis in ICR mouse assessed as number of mouse bearing one papilloma at 85 nmol administered twice weekly after 1 week of initiation. It is filed as functional. Further details: scale not given: the % may be the effect or the level left.
In data set [13] the test system is Mus musculus. Description: Inhibition of DMBA-induced/TPA-promoted carcinogenesis in ICR mouse assessed as reduction in skin-papilloma formation at 85 nmol administered twice weekly after 1 week of initiation for 20 weeks. It is filed as functional. Details: scale not given: the % may be the effect or the level left.
In data set [14] the test system is Mus musculus. Description: Inhibition of DMBA-induced/TPA-promoted carcinogenesis in ICR mouse assessed as number of skin papillomas per mouse at 85 nmol administered twice weekly after 1 week of initiation for 20 weeks. It is filed as functional. Further details: scale not given: the % may be the effect or the level left.

With `COc1cc2c(cc1OC)[C@@H]1C(=O)c3ccc4c(c3O[C@@H]1CO2)C[C@H](C(C)(C)O[C@@H]1O[C@H](CO)[C@@H](O)[C@H](O)[C@H]1O)O4`, the Activity in [1] was 36.3%; in [2], 87.3%; in data set [3], 100%; in data set [8], 0%. Further, the viability at 1000 molar ratio in data set [4] is 80%. For the same compound, in data set [5], the viability at 500 molar ratio came to 80%. Moreover, the viability at 100 molar ratio in [6] worked out at 80%. Further, the viability at 10 molar ratio in [7] came to 80%.
Consider `COc1cc2c(cc1OC)[C@]1(O)C(=O)c3ccc4c(c3O[C@@H]1CO2)C[C@H](C(C)(C)O)O4`, for which the Activity in data set [1] stood at 43.9%; in [2], 82.1%; in data set [3] it was 100%; in data set [8] it was 22.6%. Besides, the viability at 1000 molar ratio in [4] came out at 80%. Besides, the viability at 500 molar ratio in data set [5] came out at 80%. Besides, in [6], the viability at 100 molar ratio worked out at 80%. Moreover, the viability at 10 molar ratio in data set [7] is 80%.
On to `C=C(CO)[C@H]1Cc2c(ccc3c2O[C@@H]2COc4cc(OC)c(OC)cc4[C@@H]2C3=O)O1` [AMORPHIGENIN], for which the Activity turned out to be 64.2% in data set [1], 100% in data set [2], 100% in data set [3] and 31.7% in data set [8]. For the same compound, the viability at 1000 molar ratio in data set [4] is 80%. The viability at 500 molar ratio in data set [5] came out at 80%. Further, the viability at 100 molar ratio in data set [6] came to 80%. In [7], the viability at 10 molar ratio was found to be 80%.
For the compound `COC1=CC(=O)[C@]2(C=C1OC)OC[C@H]1Oc3c(ccc4c3C=CC(C)(C)O4)C(=O)[C@H]12` [AMORPHISPIRONONE], the Activity in data set [1] amounted to 31.8%; in data set [2], 70.4%; in data set [3] it was 100%; in [9], 59.1%; in [10], 10.3%; in data set [11], 30.6%. The Activity in [12] was 20%; in data set [13], over 80%; in data set [14] it was over 90%; in [8], 0%. Besides, the viability at 1000 molar ratio in [4] worked out at 20%. Further, the viability at 500 molar ratio in [5] came out at 80%. In addition, the viability at 100 molar ratio in data set [6] is 80%. For the same compound, the viability at 10 molar ratio in [7] came to 80%.
With `C=C(CO)[C@H]1Cc2c(ccc3c2O[C@@H]2COc4cc(OC)c(OC)cc4[C@]2(O)C3=O)O1` [DABINOL], the Activity turned out to be 89.7% in data set [1], 100% in data set [2], 100% in [3] and 24.2% in data set [8]. For the same compound, the viability at 1000 molar ratio in [4] came to 80%. In addition, the viability at 500 molar ratio in data set [5] is 80%. Besides, the viability at 100 molar ratio in data set [6] was 80%. Moreover, in data set [7], the viability at 10 molar ratio stood at 80%.
For the compound `COc1cc2c(cc1OC)[C@]1(O)C(=O)c3ccc4c(c3O[C@@H]1CO2)C=CC(C)(C)O4` [TEPHROSIN], the Activity was 26.1% in [1]; 60.4% in [2]; 89.3% in data set [3]; 57.8% in [9]; 13.4% in [10]; 28.8% in data set [11]. Moreover, the values for the Activity in [13], in [14] and in [8] were 60%, 70% and 8%, respectively. Besides, the viability at 1000 molar ratio in [4] was 40%. Further, the viability at 500 molar ratio in data set [5] worked out at 60%. In addition, in data set [6], the viability at 100 molar ratio is 70%. For the same compound, in data set [7], the viability at 10 molar ratio turned out to be 80%.
